# Measurements published in patent publication US12370168B2 (scPharmaceuticals Inc., priority 2013, dated 2025).
# Like-named read-outs stand apart in the source and are kept apart here.
# Key:
# [1] = unbuffered
# [2] = Example 4 short term storage stability of 8 mg/mL furosemide Tris-buffered solutions; conditions: over 48 hours
# Experimental: Upon preparation, samples were filtered through 0.2 μm nylon filters.
# The osmolality values of 50 μL aliquots of each sample were measured by freezing point depression.
# Aliquots of each sample were stored at each condition and subsequently filtered and analyzed after 24 and 48 hours of storage.
# [3] = 8 mg/mL
# [4] = Example 3 stability of 20 mg/mL furosemide Tris-buffered solutions, pH 6.7 to 8.5, ambient temperature; conditions: Tris buffer pH 6.7 to 8.5, ambient temperature, over 48 hours
# Experimental: Samples were stored at ambient temperature and subsequently analyzed after 24 and 48 hours of storage.
# [5] = Tris buffer pH 7.0, 7.5, 8.0, −20° C., 2° C.-8° C., 25° C., 40° C.
# [6] = 25 mM Tris, nominal pH 7.0, 2-8° C., three months
# [7] = 25 mM Tris, nominal pH 7.0, 25° C., three months
# [8] = 25 mM Tris, nominal pH 7.0, 40° C., three months
# [9] = 25 mM Tris, nominal pH 7.0, −20° C., three months
# [10] = 25 mM Tris, nominal pH 7.4, 2-8° C., three months
# [11] = 25 mM Tris, nominal pH 7.4, 25° C., three months
# [12] = 25 mM Tris, nominal pH 7.4, 40° C., three months
# [13] = 25 mM Tris, nominal pH 7.4, −20° C., three months
# [14] = 25 mM Tris, nominal pH 8.0, 2-8° C., three months
# [15] = 25 mM Tris, nominal pH 8.0, 25° C., three months
# [16] = 25 mM Tris, nominal pH 8.0, 40° C., three months
# [17] = 25 mM Tris, nominal pH 8.0, −20° C., three months
# [18] = 50 mM Tris, nominal pH 7.0, 2-8° C., three months
# [19] = 50 mM Tris, nominal pH 7.0, 25° C., three months
# [20] = 50 mM Tris, nominal pH 7.0, 40° C., three months
# [21] = 50 mM Tris, nominal pH 7.0, −20° C., three months
# [22] = 50 mM Tris, nominal pH 7.4, 2-8° C., three months
# [23] = 50 mM Tris, nominal pH 7.4, 25° C., three months
# [24] = 50 mM Tris, nominal pH 7.4, 40° C., three months
# [25] = 50 mM Tris, nominal pH 7.4, −20° C., three months
# [26] = 50 mM Tris, nominal pH 8.0, 2-8° C., three months
# [27] = 50 mM Tris, nominal pH 8.0, 25° C., three months
# [28] = 50 mM Tris, nominal pH 8.0, 40° C., three months
# [29] = 50 mM Tris, nominal pH 8.0, −20° C., three months
# [30] = 100 mM Tris, nominal pH 7.0, 2-8° C., three months
# [31] = 100 mM Tris, nominal pH 7.0, 25° C., three months
# [32] = 100 mM Tris, nominal pH 7.0, 40° C., three months
# [33] = 100 mM Tris, nominal pH 7.0, t0
# [34] = 100 mM Tris, nominal pH 7.0, −20° C., three months
# [35] = 100 mM Tris, nominal pH 7.4, 2-8° C., three months
# [36] = 100 mM Tris, nominal pH 7.4, 25° C., three months
# [37] = 100 mM Tris, nominal pH 7.4, 40° C., three months
# [38] = 100 mM Tris, nominal pH 7.4, t0
# [39] = 100 mM Tris, nominal pH 7.4, −20° C., three months
# [40] = 100 mM Tris, nominal pH 8.0, 2-8° C., three months
# [41] = 100 mM Tris, nominal pH 8.0, 25° C., three months
# [42] = 100 mM Tris, nominal pH 8.0, 40° C., three months
# [43] = 100 mM Tris, nominal pH 8.0, t0
# [44] = 100 mM Tris, nominal pH 8.0, −20° C., three months
# [45] = 25, 50, 100 mM Tris, pH 7.0, 7.4, 8.0, −20° C. to 40° C., three months
smiles,measurement,setting,value
"NS(=O)(=O)c1cc(C(=O)O)c(NCc2ccco2)cc1Cl [Furosemide, 4-chloro-2-(furan-2-ylmethylamino)-5-sulfamoyl-benzoic acid]",solution pH over time,"[1]; 0.1 mg/mL and 8 mg/mL, adjusted to pH 8 to 9 with NaOH and HCl, monitored 72 hours",continually decrease
same,reproducibility of observed pH values,"[1]; 8 mg/mL, pH 8.5, same equivalents of furosemide, acid and base",varied widely
same,change in furosemide concentration,[2]; [5],No decrease
same,pH deviation from the initial value,[2]; [5],≤ 0.1 units
same,osmolality over time,[2]; Tris buffer,consistent
same,Osmolality,[3]; [6],297 mOsm/kg H2O
same,[Furosemide],[3]; [6],8.01 mg/mL
same,pH,[3]; [6],7.08
same,Osmolality,[3]; [7],298 mOsm/kg H2O
same,[Furosemide],[3]; [7],7.91 mg/mL
same,pH,[3]; [7],7.09
same,Osmolality,[3]; [8],296 mOsm/kg H2O
same,[Furosemide],[3]; [8],7.89 mg/mL
same,pH,[3]; [8],7.08
same,Osmolality,"[3]; 25 mM Tris, nominal pH 7.0, t0",293 mOsm/kg H2O
same,[Furosemide],"[3]; 25 mM Tris, nominal pH 7.0, t0",8.09 mg/mL
same,pH,"[3]; 25 mM Tris, nominal pH 7.0, t0",7.02
same,Osmolality,[3]; [9],296 mOsm/kg H2O
same,[Furosemide],[3]; [9],7.91 mg/mL
same,pH,[3]; [9],7.07
same,Osmolality,[3]; [10],291 mOsm/kg H2O
same,[Furosemide],[3]; [10],7.79 mg/mL
same,pH,[3]; [10],7.49
same,Osmolality,[3]; [11],289 mOsm/kg H2O
same,[Furosemide],[3]; [11],7.81 mg/mL
same,pH,[3]; [11],7.47
same,Osmolality,[3]; [12],290 mOsm/kg H2O
same,[Furosemide],[3]; [12],7.90 mg/mL
same,pH,[3]; [12],7.47
same,Osmolality,"[3]; 25 mM Tris, nominal pH 7.4, t0",287 mOsm/kg H2O
same,[Furosemide],"[3]; 25 mM Tris, nominal pH 7.4, t0",8.00 mg/mL
same,pH,"[3]; 25 mM Tris, nominal pH 7.4, t0",7.42
same,Osmolality,[3]; [13],288 mOsm/kg H2O
same,[Furosemide],[3]; [13],7.92 mg/mL
same,pH,[3]; [13],7.47
same,Osmolality,[3]; [14],292 mOsm/kg H2O
same,[Furosemide],[3]; [14],7.97 mg/mL
same,pH,[3]; [14],8.07
same,Osmolality,[3]; [15],294 mOsm/kg H2O
same,[Furosemide],[3]; [15],7.76 mg/mL
same,pH,[3]; [15],8.06
same,Osmolality,[3]; [16],294 mOsm/kg H2O
same,[Furosemide],[3]; [16],7.99 mg/mL
same,pH,[3]; [16],8.07
same,Osmolality,"[3]; 25 mM Tris, nominal pH 8.0, t0",289 mOsm/kg H2O
same,[Furosemide],"[3]; 25 mM Tris, nominal pH 8.0, t0",8.08 mg/mL
same,pH,"[3]; 25 mM Tris, nominal pH 8.0, t0",8.04
same,Osmolality,[3]; [17],291 mOsm/kg H2O
same,[Furosemide],[3]; [17],7.91 mg/mL
same,pH,[3]; [17],8.06
same,Osmolality,[3]; [18],294 mOsm/kg H2O
same,[Furosemide],[3]; [18],8.02 mg/mL
same,pH,[3]; [18],7.10
same,Osmolality,[3]; [19],290 mOsm/kg H2O
same,[Furosemide],[3]; [19],8.07 mg/mL
same,pH,[3]; [19],7.10
same,Osmolality,[3]; [20],295 mOsm/kg H2O
same,[Furosemide],[3]; [20],7.94 mg/mL
same,pH,[3]; [20],7.12
same,Osmolality,"[3]; 50 mM Tris, nominal pH 7.0, t0",290 mOsm/kg H2O
same,[Furosemide],"[3]; 50 mM Tris, nominal pH 7.0, t0",8.06 mg/mL
same,pH,"[3]; 50 mM Tris, nominal pH 7.0, t0",7.04
same,Osmolality,[3]; [21],289 mOsm/kg H2O
same,[Furosemide],[3]; [21],8.12 mg/mL
same,pH,[3]; [21],7.13
same,Osmolality,[3]; [22],293 mOsm/kg H2O
same,[Furosemide],[3]; [22],8.10 mg/mL
same,pH,[3]; [22],7.50
same,Osmolality,[3]; [23],292 mOsm/kg H2O
same,[Furosemide],[3]; [23],7.87 mg/mL
same,pH,[3]; [23],7.49
same,Osmolality,[3]; [24],296 mOsm/kg H2O
same,[Furosemide],[3]; [24],7.97 mg/mL
same,pH,[3]; [24],7.50
same,Osmolality,"[3]; 50 mM Tris, nominal pH 7.4, t0",289 mOsm/kg H2O
same,[Furosemide],"[3]; 50 mM Tris, nominal pH 7.4, t0",8.09 mg/mL
same,pH,"[3]; 50 mM Tris, nominal pH 7.4, t0",7.44
same,Osmolality,[3]; [25],292 mOsm/kg H2O
same,[Furosemide],[3]; [25],7.93 mg/mL
same,pH,[3]; [25],7.52
same,Osmolality,[3]; [26],296 mOsm/kg H2O
same,[Furosemide],[3]; [26],7.84 mg/mL
same,pH,[3]; [26],8.10
same,Osmolality,[3]; [27],296 mOsm/kg H2O
same,[Furosemide],[3]; [27],7.82 mg/mL
same,pH,[3]; [27],8.09
same,Osmolality,[3]; [28],289 mOsm/kg H2O
same,[Furosemide],[3]; [28],7.95 mg/mL
same,pH,[3]; [28],8.10
same,Osmolality,"[3]; 50 mM Tris, nominal pH 8.0, t0",288 mOsm/kg H2O
same,[Furosemide],"[3]; 50 mM Tris, nominal pH 8.0, t0",8.14 mg/mL
same,pH,"[3]; 50 mM Tris, nominal pH 8.0, t0",8.04
same,Osmolality,[3]; [29],289 mOsm/kg H2O
same,[Furosemide],[3]; [29],7.93 mg/mL
same,pH,[3]; [29],8.11
same,Osmolality,[3]; [30],296 mOsm/kg H2O
same,[Furosemide],[3]; [30],7.89 mg/mL
same,pH,[3]; [30],7.00
same,Osmolality,[3]; [31],293 mOsm/kg H2O
same,[Furosemide],[3]; [31],7.79 mg/mL
same,pH,[3]; [31],6.99
same,Osmolality,[3]; [32],294 mOsm/kg H2O
same,[Furosemide],[3]; [32],7.87 mg/mL
same,pH,[3]; [32],6.98
same,Osmolality,[3]; [33],292 mOsm/kg H2O
same,[Furosemide],[3]; [33],8.04 mg/mL
same,pH,[3]; [33],7.02
same,Osmolality,[3]; [34],298 mOsm/kg H2O
same,[Furosemide],[3]; [34],7.90 mg/mL
same,pH,[3]; [34],7.00
same,Osmolality,[3]; [35],301 mOsm/kg H2O
same,[Furosemide],[3]; [35],7.95 mg/mL
same,pH,[3]; [35],7.41
same,Osmolality,[3]; [36],295 mOsm/kg H2O
same,[Furosemide],[3]; [36],7.82 mg/mL
same,pH,[3]; [36],7.41
same,Osmolality,[3]; [37],297 mOsm/kg H2O
same,[Furosemide],[3]; [37],7.90 mg/mL
same,pH,[3]; [37],7.39
same,Osmolality,[3]; [38],297 mOsm/kg H2O
same,[Furosemide],[3]; [38],8.17 mg/mL
same,pH,[3]; [38],7.42
same,Osmolality,[3]; [39],301 mOsm/kg H2O
same,[Furosemide],[3]; [39],7.92 mg/mL
same,pH,[3]; [39],7.42
same,Osmolality,[3]; [40],295 mOsm/kg H2O
same,[Furosemide],[3]; [40],7.91 mg/mL
same,pH,[3]; [40],7.99
same,Osmolality,[3]; [41],288 mOsm/kg H2O
same,[Furosemide],[3]; [41],7.79 mg/mL
same,pH,[3]; [41],7.97
same,Osmolality,[3]; [42],294 mOsm/kg H2O
same,[Furosemide],[3]; [42],7.79 mg/mL
same,pH,[3]; [42],7.98
same,Osmolality,[3]; [43],292 mOsm/kg H2O
same,[Furosemide],[3]; [43],8.08 mg/mL
same,pH,[3]; [43],7.99
same,Osmolality,[3]; [44],296 mOsm/kg H2O
same,[Furosemide],[3]; [44],7.89 mg/mL
same,pH,[3]; [44],7.99
same,change in furosemide concentration,[3]; [45],no change
same,change in osmolality,[3]; [45],no change
same,change in pH,[3]; [45],no change
same,change in visual appearance,[3]; [45],no change
same,change in furosemide concentration,[4],No decrease
same,pH deviation from the initial value,[4],≤ 0.1 units
